Common to all, as to assay type: in vivo
For data set [1], the system named is corn. Put plainly: Test Example-4: phytotoxicity by a foliage treatment after weeds are generated under upland field conditions. The conditions noted are these: 500 g a.i/ha, foliage treatment after emergence, about 14 days after treatment, score 0-5. Summed up:
(§1)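 Post-emergence foliar treatment: seedlings raised 14 days in watered upland soil are sprayed with the diluted formulation at a predetermined dose, using a spray volume of 4000 L/ha. Effects on weeds and on corn are rated 0–5 roughly two weeks afterwards.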

For data set [2], the system named is Cyperus difformis (smallflower umbrella plant). Briefly: Test Example-1: herbicidal effect by a treatment before weeds are generated under submerged conditions. Particulars: 500 g a.i/ha, pre-emergence treatment, about 15 days after treatment, score 0-5. In a few lines:
(§2)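 Scores (0–5, six stages) reflect visual weed control about 15 days after a same-day water application of the diluted formulated compound to freshly seeded, flooded paddy soil.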

For data set [3], the system named is Monochoria vaginalis (monochoria). Described as above. Particulars: 500 g a.i/ha, pre-emergence treatment, about 15 days after treatment, score 0-5. In a few lines:
as §2

Data set [4] relates to Scirpus juncoides (bulrush). The data set is described as above. The conditions noted are these: 500 g a.i/ha, pre-emergence treatment, about 15 days after treatment, score 0-5. In a few lines:
as §2

Data set [5] concerns Eleocharis acicularis (needle spikerush). Described as above. Particulars: 500 g a.i/ha, pre-emergence treatment, about 15 days after treatment, score 0-5. Summed up: as §2
In data set [6] the test system is other annual broad leaf weeds (Lindernia procumbens, Rotala indica, Elatine triandra). The data set is described as above. Particulars: 500 g a.i/ha, pre-emergence treatment, about 15 days after treatment, score 0-5. In a few lines: as §2
The subject of data set [7] is Echinochloa oryzicola (barnyard grass). The data set is described as above. Particulars: 500 g a.i/ha, pre-emergence treatment, about 15 days after treatment, score 0-5. In a few lines: as §2
Data set [8] concerns Chenopodium album (common lambsquarters). Briefly: Test Example-4: herbicidal effect by a foliage treatment after weeds are generated under upland field conditions. The conditions noted are these: 500 g a.i/ha, foliage treatment after emergence, about 14 days after treatment, score 0-5. In a few lines:
as §1

The test system of data set [9] is Amaranthus viridis (green amaranthus). Described as above. The conditions noted are these: 500 g a.i/ha, foliage treatment after emergence, about 14 days after treatment, score 0-5. In a few lines:
as §1

Data set [10] concerns Abutilon theophrasti (velvetleaf). The description is as above. The conditions noted are these: 500 g a.i/ha, foliage treatment after emergence, about 14 days after treatment, score 0-5. Summed up:
as §1

The subject of data set [11] is corn. Put plainly: Test Example-2: phytotoxicity by a soil treatment before weeds are generated under upland field conditions. Particulars: application amount 500 g a.i/ha, soil spray treatment before weeds are generated, about 21 days after the treatment, score 0 to 5. From the text: (§3) Using the formulation prepared according to the methods described above, the herbicidal effect of the bicyclic pyrazolinone derivative of the invention according to the methods shown in Test Examples below was examined. The herbicidal effect with respect to the test weeds or the phytotoxicity with respect to the test crops was examined according to the following criteria, and evaluated in six stage scores of 0 to 5. A vat having an area of 81 cm^2 and a depth of 3.5 cm was filled with upland soil, then, seeds of Amaranthus viridis (green amaranthus), Chenopodium album (common lambsquarters), and corn were seeded thereto, and the seeds were covered with soil of about 0.5 cm. Next day, a wettable powder or an emulsifiable concentrate of the compound of the present invention prepared according to Formulation Example was diluted, and a spray treatment was uniformly performed on the covered oil so as to be a predetermined dosage. The herbicidal effect with respect to the test weeds and the phytotoxicity with respect to corn about 21 days after the treatment were evaluated according to the evaluation criteria in six stages of 0 to 5 described above.

The test system of data set [12] is Chenopodium album (common lambsquarters). Briefly: Test Example-2: herbicidal effect by a soil treatment before weeds are generated under upland field conditions. Particulars: application amount 500 g a.i/ha, soil spray treatment before weeds are generated, about 21 days after the treatment, score 0 to 5.
From the text: as §3

Data set [13] concerns Amaranthus viridis (green amaranthus). The data set is described as above. Particulars: application amount 500 g a.i/ha, soil spray treatment before weeds are generated, about 21 days after the treatment, score 0 to 5.
From the text: as §3

Each structure is given as a SMILES string.

Turning to `C#CCOc1cc(-c2c(F)n3n(c2=O)CCCC3)c(Cl)cc1Cl` [Example 1-358], the “Phytotoxicity Corn” value in data set [1] is 1 (Herbicidal effect/phytotoxicity was 10% to 30%); in data set [11], 0 (Herbicidal effect/phytotoxicity was 0% to 10%). Moreover, the “Herbicidal effect Cyperus difformis” value in [2] was 5 (Herbicidal effect/phytotoxicity was 90% or greater). In addition, the “Herbicidal effect Monochoria vaginalis” value in data set [3] is listed as 5 (Herbicidal effect/phytotoxicity was 90% or greater). In data set [4], the “Herbicidal effect Scirpus juncoides” value is 5 (Herbicidal effect/phytotoxicity was 90% or greater). Also, in [5], the “Herbicidal effect Eleocharis acicularis” value is 5 (Herbicidal effect/phytotoxicity was 90% or greater). Moreover, the “Herbicidal effect Broadleaf weed” value in [6] is recorded as 5 (Herbicidal effect/phytotoxicity was 90% or greater). Besides, the “Herbicidal effect Echinochloa oryzicola” value in data set [7] is 5 (Herbicidal effect/phytotoxicity was 90% or greater). Also, the “Herbicidal effect Chenopodium album” value in data set [8] and in data set [12] was 5 (Herbicidal effect/phytotoxicity was 90% or greater) in each case. Besides, the “Herbicidal effect Amaranthus viridis” value in data set [9] and in data set [13] was 5 (Herbicidal effect/phytotoxicity was 90% or greater) in each case. Further, in data set [10], the “Herbicidal effect Abutilon theophrast” value is 5 (Herbicidal effect/phytotoxicity was 90% or greater).

For `C#CCOc1cc(-c2c(Cl)n3n(c2=O)CCOCC3)c(F)cc1F` [Example 1-368], the “Phytotoxicity Corn” value in data set [1] is listed as 1 (Herbicidal effect/phytotoxicity was 10% to 30%); in data set [11], 0 (Herbicidal effect/phytotoxicity was 0% to 10%). In addition, in [2], the “Herbicidal effect Cyperus difformis” value is listed as 5 (Herbicidal effect/phytotoxicity was 90% or greater). Besides, the “Herbicidal effect Monochoria vaginalis” value in [3] was 5 (Herbicidal effect/phytotoxicity was 90% or greater). The “Herbicidal effect Scirpus juncoides” value in [4] is recorded as 5 (Herbicidal effect/phytotoxicity was 90% or greater). Besides, the “Herbicidal effect Eleocharis acicularis” value in data set [5] was 5 (Herbicidal effect/phytotoxicity was 90% or greater). Moreover, the “Herbicidal effect Broadleaf weed” value in data set [6] is 5 (Herbicidal effect/phytotoxicity was 90% or greater). The “Herbicidal effect Echinochloa oryzicola” value in [7] is reported as 5 (Herbicidal effect/phytotoxicity was 90% or greater). Besides, the “Herbicidal effect Chenopodium album” value in data set [8] and in data set [12] was 5 (Herbicidal effect/phytotoxicity was 90% or greater) throughout. Also, the “Herbicidal effect Amaranthus viridis” value in data set [9] and in data set [13] was 5 (Herbicidal effect/phytotoxicity was 90% or greater) in each case. Besides, the “Herbicidal effect Abutilon theophrast” value in data set [10] is given as 5 (Herbicidal effect/phytotoxicity was 90% or greater).

As to `COc1cc(-c2c(Cl)n3n(c2=O)CCCC3)c(Cl)cc1Cl` [Example 1-292], the entries for the “Phytotoxicity Corn” value in data set [1] and in data set [11] were 1 (Herbicidal effect/phytotoxicity was 10% to 30%) and 2 (Herbicidal effect/phytotoxicity was 30% to 50%), respectively. In addition, in [2], the “Herbicidal effect Cyperus difformis” value was 5 (Herbicidal effect/phytotoxicity was 90% or greater). Besides, the “Herbicidal effect Monochoria vaginalis” value in data set [3] is on record as 5 (Herbicidal effect/phytotoxicity was 90% or greater). In data set [4], the “Herbicidal effect Scirpus juncoides” value is 5 (Herbicidal effect/phytotoxicity was 90% or greater). In data set [5], the “Herbicidal effect Eleocharis acicularis” value is 5 (Herbicidal effect/phytotoxicity was 90% or greater). Also, the “Herbicidal effect Broadleaf weed” value in [6] is reported as 5 (Herbicidal effect/phytotoxicity was 90% or greater). In addition, the “Herbicidal effect Echinochloa oryzicola” value in data set [7] is 5 (Herbicidal effect/phytotoxicity was 90% or greater). Further, the “Herbicidal effect Chenopodium album” value in data set [8] and in data set [12] was 5 (Herbicidal effect/phytotoxicity was 90% or greater) in each case. Besides, the “Herbicidal effect Amaranthus viridis” value in data set [9] and in data set [13] was 5 (Herbicidal effect/phytotoxicity was 90% or greater) each time. In addition, the “Herbicidal effect Abutilon theophrast” value in data set [10] is on record as 5 (Herbicidal effect/phytotoxicity was 90% or greater).

With `CC(C)Oc1cc(-c2c(Cl)n3n(c2=O)CCCC3)c(F)cc1Cl` [Example 1-151], the “Phytotoxicity Corn” value in [1] is listed as 1 (Herbicidal effect/phytotoxicity was 10% to 30%); in data set [11], 0 (Herbicidal effect/phytotoxicity was 0% to 10%). Further, the “Herbicidal effect Cyperus difformis” value in data set [2] is on record as 5 (Herbicidal effect/phytotoxicity was 90% or greater). Besides, the “Herbicidal effect Monochoria vaginalis” value in [3] is on record as 5 (Herbicidal effect/phytotoxicity was 90% or greater). In addition, the “Herbicidal effect Scirpus juncoides” value in data set [4] was 5 (Herbicidal effect/phytotoxicity was 90% or greater). In addition, the “Herbicidal effect Eleocharis acicularis” value in data set [5] was 5 (Herbicidal effect/phytotoxicity was 90% or greater). In data set [6], the “Herbicidal effect Broadleaf weed” value is listed as 5 (Herbicidal effect/phytotoxicity was 90% or greater). Moreover, the “Herbicidal effect Echinochloa oryzicola” value in [7] is reported as 5 (Herbicidal effect/phytotoxicity was 90% or greater). Besides, the “Herbicidal effect Chenopodium album” value in [8] and in data set [12] was 5 (Herbicidal effect/phytotoxicity was 90% or greater) in each case. The “Herbicidal effect Amaranthus viridis” value in data set [9] and in [13] was 5 (Herbicidal effect/phytotoxicity was 90% or greater) each time. The “Herbicidal effect Abutilon theophrast” value in data set [10] is listed as 5 (Herbicidal effect/phytotoxicity was 90% or greater).

As to `C=C(C)COc1cc(-c2c(Cl)n3n(c2=O)CCCC3)c(F)cc1Cl` [Example 1-214], the results for the “Phytotoxicity Corn” value in data set [1] and in data set [11] were 2 (Herbicidal effect/phytotoxicity was 30% to 50%) and 0 (Herbicidal effect/phytotoxicity was 0% to 10%), respectively. Further, in data set [2], the “Herbicidal effect Cyperus difformis” value is listed as 5 (Herbicidal effect/phytotoxicity was 90% or greater). Also, the “Herbicidal effect Monochoria vaginalis” value in [3] is given as 5 (Herbicidal effect/phytotoxicity was 90% or greater). The “Herbicidal effect Scirpus juncoides” value in data set [4] is 5 (Herbicidal effect/phytotoxicity was 90% or greater). Also, in data set [5], the “Herbicidal effect Eleocharis acicularis” value was 5 (Herbicidal effect/phytotoxicity was 90% or greater). Moreover, the “Herbicidal effect Broadleaf weed” value in data set [6] is on record as 5 (Herbicidal effect/phytotoxicity was 90% or greater). Further, the “Herbicidal effect Echinochloa oryzicola” value in data set [7] is given as 5 (Herbicidal effect/phytotoxicity was 90% or greater). For the same compound, the “Herbicidal effect Chenopodium album” value in data set [8] and in data set [12] was 5 (Herbicidal effect/phytotoxicity was 90% or greater) each time. The “Herbicidal effect Amaranthus viridis” value in data set [9] and in [13] was 5 (Herbicidal effect/phytotoxicity was 90% or greater) each time. Besides, the “Herbicidal effect Abutilon theophrast” value in [10] is on record as 5 (Herbicidal effect/phytotoxicity was 90% or greater).

Take `C#CC(C)Oc1cc(-c2c(Cl)n3n(c2=O)CCCC3)c(F)cc1Cl` (stereo not drawn) [Example 1-243]: the results for the “Phytotoxicity Corn” value in data set [1] and in data set [11] were 1 (Herbicidal effect/phytotoxicity was 10% to 30%) and 0 (Herbicidal effect/phytotoxicity was 0% to 10%), respectively. In addition, the “Herbicidal effect Cyperus difformis” value in [2] is 5 (Herbicidal effect/phytotoxicity was 90% or greater). Also, the “Herbicidal effect Monochoria vaginalis” value in [3] is given as 5 (Herbicidal effect/phytotoxicity was 90% or greater). Moreover, in data set [4], the “Herbicidal effect Scirpus juncoides” value is listed as 5 (Herbicidal effect/phytotoxicity was 90% or greater). Besides, the “Herbicidal effect Eleocharis acicularis” value in data set [5] is on record as 5 (Herbicidal effect/phytotoxicity was 90% or greater). Also, in data set [6], the “Herbicidal effect Broadleaf weed” value is 5 (Herbicidal effect/phytotoxicity was 90% or greater). Besides, the “Herbicidal effect Echinochloa oryzicola” value in data set [7] is on record as 5 (Herbicidal effect/phytotoxicity was 90% or greater). Moreover, the “Herbicidal effect Chenopodium album” value in data set [8] and in data set [12] was 5 (Herbicidal effect/phytotoxicity was 90% or greater) in each case. Moreover, the “Herbicidal effect Amaranthus viridis” value in data set [9] and in data set [13] was 5 (Herbicidal effect/phytotoxicity was 90% or greater) in each case. Moreover, the “Herbicidal effect Abutilon theophrast” value in [10] is listed as 5 (Herbicidal effect/phytotoxicity was 90% or greater).
